Target: T1, human MPO (Homo sapiens, UniProt P05164)
T1 sequence (P05164 49-745): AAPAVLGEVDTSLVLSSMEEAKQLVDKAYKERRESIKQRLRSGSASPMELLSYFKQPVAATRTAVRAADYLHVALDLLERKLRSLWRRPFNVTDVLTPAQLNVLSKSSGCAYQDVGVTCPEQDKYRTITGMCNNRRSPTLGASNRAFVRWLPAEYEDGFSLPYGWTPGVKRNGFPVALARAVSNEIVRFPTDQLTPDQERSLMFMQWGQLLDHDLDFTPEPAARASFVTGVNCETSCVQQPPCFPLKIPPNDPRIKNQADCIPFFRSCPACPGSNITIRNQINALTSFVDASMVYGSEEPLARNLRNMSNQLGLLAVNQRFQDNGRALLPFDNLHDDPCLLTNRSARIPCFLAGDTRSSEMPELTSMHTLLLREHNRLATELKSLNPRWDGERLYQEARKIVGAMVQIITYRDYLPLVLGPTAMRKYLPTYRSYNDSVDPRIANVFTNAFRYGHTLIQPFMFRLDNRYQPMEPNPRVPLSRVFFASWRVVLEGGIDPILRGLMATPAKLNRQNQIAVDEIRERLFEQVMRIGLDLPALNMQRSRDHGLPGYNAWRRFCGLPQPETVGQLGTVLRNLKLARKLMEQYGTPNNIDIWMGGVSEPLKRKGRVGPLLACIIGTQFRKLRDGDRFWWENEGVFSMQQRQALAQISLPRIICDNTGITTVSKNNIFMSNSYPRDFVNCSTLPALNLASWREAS
Experiment: MPO inhibition screen (TMB oxidation, with or without added tyrosine)
Type: biochemical
Settings: in the presence of tyrosine
Protocol: Methods for the determination of MPO inhibitory activity are disclosed in patent application WO 02/090575. The pharmacological activity of compounds according to the invention was tested in the following screen in which the compounds were either tested alone or in the presence of added tyrosine:
Assay buffer: 20 mM sodium/potassium phosphate buffer pH 6.5 containing 10 mM taurine and 100 mM NaCl.
Developing reagent: 2 mM 3,3′,5,5′-tetramethylbenzidine (TMB), 200 μM KI, 200 mM acetate buffer pH 5.4 with 20% DMF.
To 10 μl of diluted compounds in assay buffer, 40 μl of human MPO (final concentration […]), with or without 20 μM tyrosine (final concentration, if present, 8 μM), was added and the mixture was incubated for 10 minutes at ambient temperature. Then 50 μl of H2O2 (final concentration 100 μM), or assay buffer alone as a control, were added. After incubation for 10 minutes at ambient temperature, the reaction was stopped by adding 10 μl 0.2 mg/ml of catalase (final concentration 18 μg/ml). The reaction mixture was left for an additional 5 minutes before 100 μl of TMB developing reagent was added. The amount of oxidised 3,3′,5,5′-tetramethylbenzidine formed was then measured after about 5 minutes using absorbance spectroscopy at about […]. IC50 values were then determined using standard procedures.

- IC50: 500 nM
Compound: CCOC(C)Cn1c(=S)[nH]c(=O)c2[nH]cnc21 (racemic) [Example 5, 3-(2-Ethoxy-propyl)-2-thioxanthine]

Source: US20090131459A1, “2-Thioxanthine Derivatives Acting as MPO-Inhibitors” (ASTRAZENECA AB, priority 2006, published 2009)
